Consider seven compounds from patent US20260285853A1, “COMPOUNDS AND METHODS FOR MODULATING SPLICING” (REMIX THERAPEUTICS INC., priority 2023, published 2026).

What all share (format): cell-based
Assay [1] concerns HTT mRNA. Briefly: Splicing RT-qPCR assay (THP), Table 2A. The following applies: Table 2A, THP; for AC50: HTT alternative junction (AJ) mRNA, read-out: HTT AJ (AC50, increase in alternative junction mRNA); for IC50: HTT canonical junction (CJ) mRNA, read-out: HTT CJ (IC50, decrease in canonical junction mRNA).
The subject of assay [2] is MYB mRNA. Briefly: Splicing RT-qPCR assay (THP), Table 2A. The following applies: Table 2A, THP; for AC50: MYB alternative junction (AJ) mRNA, read-out: MYB AJ (AC50, increase in alternative junction mRNA); for IC50: MYB canonical junction (CJ) mRNA, read-out: MYB CJ (IC50, decrease in canonical junction mRNA). (Quantitative PCR measures a nucleic acid by following its amplification.)

The test system of assay [3] is HTT mRNA. Briefly: Gene panel canonical junction qPCR assay, decrease in CJ mRNA, Table 3. The following applies: decrease in CJ mRNA levels, canonical junction qPCR, gene panel. The essentials: (§1)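 Eleven-point dose responses from 10 uM final, 24 h, DMSO ≤0.25%, in A673 or K562 cells. Relative quantification by 2^(−ΔΔCt) against housekeeper and vehicle was converted to percent response over fixed ΔCt windows and fitted to yield IC50.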

Assay [4] relates to MYB mRNA. The description is as above. The settings on record: decrease in CJ mRNA levels, canonical junction qPCR, gene panel. The essentials: as §1
The test system of assay [5] is SH-SY5Y (human neuroblastoma) cells. The assay can be described thus: Cell viability, Cell Titer Glo 2.0 assay. The following applies: read-out: Viability SHSY5Y.3 GI50. The essentials: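 Following a 72 h incubation (37 °C, 5% CO2, 0.1% DMSO final), compound toxicity toward SH-SY5Y cells was quantified by CellTiter-Glo 2.0.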
(In general: In ATP-based viability assays light output follows the ATP content of the culture.)

By AC50 is commonly meant the concentration at which the activity in the assay is half-maximal. As usually defined, the IC50 is the concentration needed to halve the response being measured. For orientation: GI50 means the concentration that inhibits growth by half. Turning to `COc1cc2c(N3CCC(NC4CC4)CC3)ccc(C(=O)Nc3cn4cc(C)nc4c(OC)n3)n2n1` [Compound 634, 4-[4-(cyclopropyl-amino)-1-piperidyl]-2-methoxy-N-(8-methoxy-2-methylimidazo[1,2-a]pyrazin-6-yl)-pyrazolo[1,5-a]pyridine-7-carboxamide], the half-maximal activity concentration (AC50) in assay [1] and in assay [2] was less than 100 nM each time. Moreover, the IC50 in assay [1], in assay [2], in assay [3] and in assay [4] was less than 100 nM in each case. Further, the GI50 in assay [5] was 100 to 1000 nM.

For `Cc1cn2cc(NC(=O)c3ccc(N4CCC(NC5CC5)CC4)n4nc(C)nc34)cc(F)c2n1` [Compound 640, 5-[4-(cyclopropylamino)-1-piperidyl]-N-(8-fluoro-2-methyl-imidazo[1,2-a]pyridin-6-yl)-2-methyl-[1,2,4]-triazolo[1,5-a]-pyridine-8-carboxamide], the half-maximal activity concentration (AC50) was 100 to 1000 nM in assay [1] and less than 100 nM in assay [2]. In addition, the IC50 in assay [1] was 100 to 1000 nM; in assay [2] it was less than 100 nM; in assay [3] it was 100 to 1000 nM; in assay [4], less than 100 nM. Also, the GI50 in assay [5] lay within 100 to 1000 nM.

As to `Cc1cn2cc(NC(=O)c3ccc(N4CCC(NC5CC5)CC4)n4nc(C)nc34)nc2c(C)n1` [Compound 641, 5-[4-(cyclopropylamino)-1-piperidyl]-N-(6,8-dimethylimidazo-[1,2-a]pyrazin-2-yl)-2-methyl-[1,2,4]-triazolo[1,5-a]pyridine-8-carboxamide], the AC50 in assay [1] and in assay [2] was 100 to 1000 nM in each case. The concentration for half-maximal inhibition (IC50) in assay [1], in assay [2], in assay [3] and in assay [4] was 100 to 1000 nM in each case. For the same compound, in assay [5], the GI50 lay within 100 to 1000 nM.

For the compound `Cc1cn2cc(NC(=O)c3ccc(N4CCNCC4)c4c3OCO4)cc(F)c2n1` [Compound 642, N-(8-fluoro-2-methyl-imidazo[1,2-a]pyridin-6-yl)-7-piperazin-1-yl-1,3-benzodioxole-4-carboxamide], the AC50 in assay [1] and in assay [2] was 1000 to 10000 nM throughout. The IC50 in assay [1], in assay [2], in assay [3] and in assay [4] was 1000 to 10000 nM throughout. Further, the concentration for 50% growth inhibition (GI50) in assay [5] lay in the range of 1000 to 10000 nM.

`Cc1cn2cc(NC(=O)c3ccc(N4C[C@@H](C)N[C@@H](C)C4)c4c3OCO4)cc(F)c2n1` [Compound 643, 7-[(3S,5R)-3,5-dimethylpiperazin-1-yl]-N-(8-fluoro-2-methyl-imidazo[1,2-a]pyridin-6-yl)-1,3-benzodioxole-4-carboxamide]: the AC50 was in the range of 1000 to 10000 nM in assay [1] and 100 to 1000 nM in assay [2]. Further, the half-maximal inhibitory concentration (IC50) was in the range of 1000 to 10000 nM in assay [1], 100 to 1000 nM in assay [2], 1000 to 10000 nM in assay [3] and 100 to 1000 nM in assay [4]. For the same compound, in assay [5], the GI50 lay in the range of 1000 to 10000 nM.

For `Cc1cn2cc(NC(=O)c3ccc(N4CCC(NC5CC5)CC4)c4c3OCO4)cc(F)c2n1` [Compound 648, 7-[4-(cyclopropylamino)-1-piperidyl]-N-(8-fluoro-2-methyl-imidazo[1,2-a]pyridin-6-yl)-1,3-benzodioxole-4-carboxamide], the AC50 in assay [1] was greater than 10000 nM; in assay [2], 1000 to 10000 nM. Also, the half-maximal inhibitory concentration (IC50) was greater than 10000 nM in assay [1], 1000 to 10000 nM in assay [2], greater than 10000 nM in assay [3] and 1000 to 10000 nM in assay [4]. Moreover, the concentration for 50% growth inhibition (GI50) in assay [5] was greater than 10000 nM.

Regarding `Cc1cn2cc(NC(=O)c3ccc(N4CCC(NC5CC5)C4)c4c3OCO4)cc(F)c2n1` (stereo not shown) [Compound 649, 7-[3-(cyclopropylamino)-pyrrolidin-1-yl]-N-(8-fluoro-2-methyl-imidazo[1,2-a]pyridin-6-yl)-1,3-benzodioxole-4-carboxamide], the AC50 in assay [1] was greater than 10000 nM; in assay [2] it was 100 to 1000 nM. Also, the half-inhibitory concentration (IC50) in assay [1] is greater than 10000 nM; in assay [2] it was 1000 to 10000 nM; in assay [3], greater than 10000 nM; in assay [4], 1000 to 10000 nM. The concentration for 50% growth inhibition (GI50) in assay [5] fell in the range of 1000 to 10000 nM.
